Tests used:
Assay type in all cases: physicochemical
[1] = Particle size distribution by laser diffraction (Malvern particle sizer 2600 C)
Text: The d10 and d50 are known ways for indicating a particle size distribution, d50 referring to the value for the particle size such that 50 vol. % of the crystals has a particle size smaller than said value. The d50 is also referred to as average volume-based grain size. Likewise, d10 refers to the value for the particle size such that 10 vol. % of the crystals has a particle size smaller than said value. A preferred way for determining d10 and d50 is laser diffraction, preferably using Malvern equipment. A suitable apparatus for […] determining d10 and d50 is a Malvern particle sizer 2600 C obtainable from Malvern Instruments Ltd., Malvern UK, using an objective of f=300 mm and a beam length of is 14.30 mm. A polydisperse analysis model may advantageously be used.
The particle size distribution (including d10 and d50) was determined using a Malvern particle sizer 2600 C with objective f=300 mm, malvern sample measurement unit PS1 and a Malvern dry powder feeder PS 64. The beam length was 14.30 mm. A polydisperse analysis model was used.

[2] = Free water content by dynamic vapour sorption (adsorption isotherm, VTI-SGA 100); conditions: equilibrium relative humidity of 30%, 25° C.
Text: The free water content of a sample can be determined by dynamic vapour sorption. The underlying principle is that the weight of the sample is monitored while it is contacted with air having a preconditioned relative humidity. As a result of water take-up or water release the sample weight will change until the equilibrium situation has been established. The sample weight in this equilibrium situation is the sample weight corresponding to the equilibrium relative humidity, the latter being the relative humidity of the preconditioned air with which the sample is contacted. By repeating this procedure for different values of the equilibrium relative humidity, the sample weight can be determined as a function of the equilibrium relative humidity. […]
As used herein, the free water content measured at an equilibrium relative humidity of 30% and at a temperature of 25° C. is in particular defined as ((w30-w10)/w10)*100%, wherein […]
The free water content, including the values for w30 and w10 are preferably determined using dynamic vapour sorption, for instance using a VTI-SGA 100 vapour sorption analyser. […]
Adsorption isotherms were determined using dynamic vapour sorption, using a VTI-SGA 100 vapour sorption analyser. […]

[3] = Tapped density (USP 24, method II); conditions: for Tap. dens.: crystalline powder as obtained, trihydrate
Text: In a preferred embodiment, the crystalline powder according to the invention has a tapped density higher than 0.6 g/ml, preferably higher than 0.7, more preferably higher than 0.8 g/ml. An increased tapped density improves the flow properties. Moreover, an increased tapped density is advantageous as more products may be fed into a certain volume, for instance a capsule. There is no specific upper limit for the tapped density. The tapped density may be less than 1.2 g/ml, for instance less than 1.1 g/ml, for instance less than 1.0 g/ml. The tapped density is preferably determined according to USP 24, method II, (page 1914).

[4] = Bulk density (USP 24, method I); conditions: for Bulk dens.: crystalline powder as obtained, trihydrate
Text: The crystalline powder according according to this aspect of the invention has improved flow properties, without having to be subjected to processes such as granulation, compactation, agglomeration or aggregation, has good colour properties, good stability and a high dissolution rate. If it would still be desired to subject the crystalline powder to processes such as granulation, compactation, agglomeration or aggregation, and the like, applying these processes is facilitated due to the improved flow properties of the crystalline powder according to this aspect of the invention. Moreover, an increased quantity of crystalline powder can be fed into a capsule of a given size. The bulk density is preferably determined according to USP 24, method I, (page 1913). Preferably, of the crystalline powder has a bulk density higher than 0.46 g/ml, preferably higher than 0.5 g/ml, more preferably higher than 0.55 g/ml. This further improves the flow properties. Moreover, an increased bulk density is advantageous as crystalline powder may be fed into a certain volume, for instance a capsule. There is no specific upper limit for the bulk density. The bulk density may be less than 0.8 g/ml, for instance less than 0.7 g/ml.

[5] = crystalline powder as obtained, trihydrate
[6] = overheads fraction after air jet sieving, 75 μm screen, 10 minutes

d10 ([1]; crystalline powder as obtained)	d50 ([1]; crystalline powder as obtained)	Free water content at ERH = 30% [2]	d10 [1, 5]	d50 [1, 5]	Tap. dens. [3]	Bulk dens. [4]	d10 [1, 6]	d50 [1, 6]	tapped density [3, 6]	bulk density [4, 6]	SMILES
2.7 μm	8.3 μm	0.11 wt. %	–	–	–	–	–	–	–	–	CC1(C)S[C@@H]2[C@H](NC(=O)[C@H](N)c3ccc(O)cc3)C(=O)N2[C@H]1C(=O)O [Comp. A, amoxicillin, reference compound]
–	–	0.05 wt. %	11.4 μm	43.1 μm	0.73 g/mL	0.51 g/mL	–	–	–	–	CC1(C)S[C@@H]2[C@H](NC(=O)[C@H](N)c3ccc(O)cc3)C(=O)N2[C@H]1C(=O)O.O.O.O [Ex. I, amoxicillin trihydrate]
–	–	–	17.4 μm	66.3 μm	0.47 g/mL	0.25 g/mL	–	–	–	–	CC1(C)S[C@@H]2[C@H](NC(=O)[C@H](N)c3ccc(O)cc3)C(=O)N2[C@H]1C(=O)O.O.O.O [Example V, amoxicillin trihydrate]
–	–	–	19 μm	61 μm	0.79 g/mL	0.58 g/mL	36 μm	86 μm	0.74 g/mL	0.59 g/mL	CC1(C)S[C@@H]2[C@H](NC(=O)[C@H](N)c3ccc(O)cc3)C(=O)N2[C@H]1C(=O)O.O.O.O [Example VI, amoxicillin trihydrate]
